According to patent US11117892B2, “Pyrrolo-pyridine derivative compound, method for preparing same, and pharmaceutical composition containing same as active ingredient for prevention or treatment of protein kinase-related diseases” (DAEGU-GYEONGBUK MEDICAL INNOVATION FOUNDATION, priority 2017, dated 2021):
Like-named read-outs stand apart in the source and are kept apart here.

Key:
Assay in all cases: scanMAX Kinase assay panel
Type in all cases: binding
Details in all cases: read-out: % control
INSR = INSR (Homo sapiens (Human), UniProt P06213)
Method in brief: (§1)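 Panel: scanMAX. Metric: % control. The 100% anchor is DMSO and the 0% anchor is the positive control.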

ACVRL1 = ACVRL1 (Homo sapiens (Human), UniProt P37023)
Method in brief: as §1

RIPK2 = RIPK2 (Homo sapiens (Human), UniProt O43353)
Method in brief: as §1

KIT(V559D, T670I) = KIT(V559D, T670I) (Homo sapiens (Human), UniProt P10721, T670I/V559D)
Method in brief: as §1

[1] = biological target: ABL1(Q252H)-phosphorylated (Homo sapiens (Human), UniProt P00519, Q252H)
Method in brief: as §1

VPS34 = VPS34 (Homo sapiens (Human), UniProt Q8NEB9)
Method in brief: as §1

LATS2 = LATS2 (Homo sapiens (Human), UniProt Q9NRM7)
Method in brief: as §1

IGF1R = IGF1R (Homo sapiens (Human), UniProt P08069)
Method in brief: as §1

TGFBR1 = TGFBR1 (Homo sapiens (Human), UniProt P36897)
Method in brief: as §1

SRPK2 = SRPK2 (Homo sapiens (Human), UniProt P78362)
Method in brief: as §1

[2] = biological target: ABL1(M351T)-phosphorylated (Homo sapiens (Human), UniProt P00519, M351T)
Method in brief: as §1

[3] = biological target: ABL1(F317I)-nonphosphorylated (Homo sapiens (Human), UniProt P00519, F317I)
Method in brief: as §1

PHKG2 = PHKG2 (Homo sapiens (Human), UniProt P15735)
Method in brief: as §1

SYK = SYK (Homo sapiens (Human), UniProt P43405)
Method in brief: as §1

MAP4K2 = MAP4K2 (Homo sapiens (Human), UniProt Q12851)
Method in brief: as §1

PRKD1 = PRKD1 (Homo sapiens (Human), UniProt Q15139)
Method in brief: as §1

BUB1 = BUB1 (Homo sapiens (Human), UniProt O43683)
Method in brief: as §1

OSR1 = OSR1 (Homo sapiens (Human), UniProt O95747)
Method in brief: as §1

[4] = biological target: TYK2(JH1domain-catalytic) (Homo sapiens (Human), UniProt P29597)
Method in brief: as §1

TEC = TEC (Homo sapiens (Human), UniProt P42680)
Method in brief: as §1

MAP4K4 = MAP4K4 (Homo sapiens (Human), UniProt O95819)
Method in brief: as §1

ERK1 = ERK1 (Homo sapiens (Human), UniProt P27361)
Method in brief: as §1

ERK8 = ERK8 (Homo sapiens (Human), UniProt Q8TD08)
Method in brief: as §1

MLCK = MLCK (Homo sapiens (Human), UniProt Q32MK0)
Method in brief: as §1

PIM1 = PIM1 (Homo sapiens (Human), UniProt P11309)
Method in brief: as §1

BTK = BTK (Homo sapiens (Human), UniProt Q06187)
Method in brief: as §1

BLK = BLK (Homo sapiens (Human), UniProt P51451)
Method in brief: as §1

CHEK2 = CHEK2 (Homo sapiens (Human), UniProt O96017)
Method in brief: as §1

ALK(C1156Y) = ALK(C1156Y) (Homo sapiens (Human), UniProt Q9UM73, C1156Y)
Method in brief: as §1

CSNK1D = CSNK1D (Homo sapiens (Human), UniProt P48730)
Method in brief: as §1

MET(Y1235D) = MET(Y1235D) (Homo sapiens (Human), UniProt P08581, Y1235D)
Method in brief: as §1

YANK3 = YANK3 (Homo sapiens (Human), UniProt Q86UX6)
Method in brief: as §1

[5] = biological target: RSK3(Kin.Dom.1-N-terminal) (Homo sapiens (Human), UniProt Q15349)
Method in brief: as §1

PKMYT1 = PKMYT1 (Homo sapiens (Human), UniProt Q99640)
Method in brief: as §1

TGFBR2 = TGFBR2 (Homo sapiens (Human), UniProt P37173)
Method in brief: as §1

MYLK = MYLK (Homo sapiens (Human), UniProt Q15746)
Method in brief: as §1

MEK3 = MEK3 (Homo sapiens (Human), UniProt P46734)
Method in brief: as §1

PIP5K1A = PIP5K1A (Homo sapiens (Human), UniProt Q99755)
Method in brief: as §1

Sequence of LATS2 (Q9NRM7 whole entry): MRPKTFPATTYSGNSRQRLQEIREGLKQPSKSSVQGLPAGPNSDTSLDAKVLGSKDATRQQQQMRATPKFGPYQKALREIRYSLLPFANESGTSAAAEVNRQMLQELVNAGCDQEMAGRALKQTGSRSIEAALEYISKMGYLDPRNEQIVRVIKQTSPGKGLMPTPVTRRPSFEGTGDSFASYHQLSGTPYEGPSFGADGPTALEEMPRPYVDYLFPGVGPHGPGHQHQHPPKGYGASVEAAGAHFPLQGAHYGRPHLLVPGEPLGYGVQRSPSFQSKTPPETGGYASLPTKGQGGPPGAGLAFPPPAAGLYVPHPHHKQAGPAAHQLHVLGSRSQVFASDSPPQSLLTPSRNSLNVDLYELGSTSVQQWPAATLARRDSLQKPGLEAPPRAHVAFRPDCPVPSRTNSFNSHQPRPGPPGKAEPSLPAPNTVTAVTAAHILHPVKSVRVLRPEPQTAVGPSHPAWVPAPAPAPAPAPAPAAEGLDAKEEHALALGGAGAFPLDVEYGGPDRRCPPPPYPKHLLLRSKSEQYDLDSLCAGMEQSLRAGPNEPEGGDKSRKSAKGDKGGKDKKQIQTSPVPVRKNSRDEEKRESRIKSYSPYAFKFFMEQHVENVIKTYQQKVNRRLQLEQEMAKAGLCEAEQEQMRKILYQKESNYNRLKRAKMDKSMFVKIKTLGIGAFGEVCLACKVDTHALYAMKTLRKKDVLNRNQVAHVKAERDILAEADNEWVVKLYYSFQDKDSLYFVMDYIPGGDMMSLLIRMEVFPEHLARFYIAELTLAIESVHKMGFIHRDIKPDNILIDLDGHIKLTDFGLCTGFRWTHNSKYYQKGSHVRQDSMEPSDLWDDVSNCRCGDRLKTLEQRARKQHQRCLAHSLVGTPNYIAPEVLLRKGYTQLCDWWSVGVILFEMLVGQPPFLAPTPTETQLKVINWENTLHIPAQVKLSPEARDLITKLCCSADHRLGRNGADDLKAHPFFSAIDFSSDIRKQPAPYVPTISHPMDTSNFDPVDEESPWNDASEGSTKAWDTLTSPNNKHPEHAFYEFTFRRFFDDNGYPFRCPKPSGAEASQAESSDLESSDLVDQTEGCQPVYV
Sequence of PRKD1 (Q15139 whole entry): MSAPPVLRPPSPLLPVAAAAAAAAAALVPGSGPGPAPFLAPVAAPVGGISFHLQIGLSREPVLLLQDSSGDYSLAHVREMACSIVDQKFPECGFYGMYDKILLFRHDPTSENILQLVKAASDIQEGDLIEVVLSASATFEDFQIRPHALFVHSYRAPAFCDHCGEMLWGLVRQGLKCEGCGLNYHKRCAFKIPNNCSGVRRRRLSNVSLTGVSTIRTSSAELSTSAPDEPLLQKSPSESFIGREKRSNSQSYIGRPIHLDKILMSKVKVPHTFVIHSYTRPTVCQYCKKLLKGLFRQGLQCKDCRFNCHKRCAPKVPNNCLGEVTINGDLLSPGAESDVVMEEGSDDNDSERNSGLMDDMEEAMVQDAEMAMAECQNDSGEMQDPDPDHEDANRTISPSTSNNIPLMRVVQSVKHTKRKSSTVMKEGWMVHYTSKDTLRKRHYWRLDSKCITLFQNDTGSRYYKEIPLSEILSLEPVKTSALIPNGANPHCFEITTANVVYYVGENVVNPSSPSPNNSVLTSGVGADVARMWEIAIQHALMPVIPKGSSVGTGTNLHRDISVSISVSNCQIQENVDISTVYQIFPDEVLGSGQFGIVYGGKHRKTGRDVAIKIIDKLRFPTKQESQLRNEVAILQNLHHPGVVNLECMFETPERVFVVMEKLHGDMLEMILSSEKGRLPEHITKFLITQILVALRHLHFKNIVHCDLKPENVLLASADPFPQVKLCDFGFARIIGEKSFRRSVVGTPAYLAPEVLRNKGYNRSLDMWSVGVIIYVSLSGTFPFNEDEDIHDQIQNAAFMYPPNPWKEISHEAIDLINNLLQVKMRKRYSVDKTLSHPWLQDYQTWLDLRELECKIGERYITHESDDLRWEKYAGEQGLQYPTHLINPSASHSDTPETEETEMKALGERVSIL
Sequence of TGFBR1 (P36897 34-503): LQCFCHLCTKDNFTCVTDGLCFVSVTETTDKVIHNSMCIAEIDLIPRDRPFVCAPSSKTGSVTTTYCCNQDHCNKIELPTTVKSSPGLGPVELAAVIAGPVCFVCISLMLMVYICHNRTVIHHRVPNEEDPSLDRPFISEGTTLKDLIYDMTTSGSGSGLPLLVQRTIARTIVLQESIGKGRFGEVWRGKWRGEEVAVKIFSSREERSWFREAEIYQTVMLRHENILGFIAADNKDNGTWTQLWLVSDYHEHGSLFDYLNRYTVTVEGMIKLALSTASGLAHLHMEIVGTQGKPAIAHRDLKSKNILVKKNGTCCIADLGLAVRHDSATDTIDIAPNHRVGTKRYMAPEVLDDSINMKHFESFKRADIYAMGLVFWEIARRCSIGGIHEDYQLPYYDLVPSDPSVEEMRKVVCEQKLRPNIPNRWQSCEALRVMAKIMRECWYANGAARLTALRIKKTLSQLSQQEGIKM
Sequence of MYLK (Q15746 whole entry): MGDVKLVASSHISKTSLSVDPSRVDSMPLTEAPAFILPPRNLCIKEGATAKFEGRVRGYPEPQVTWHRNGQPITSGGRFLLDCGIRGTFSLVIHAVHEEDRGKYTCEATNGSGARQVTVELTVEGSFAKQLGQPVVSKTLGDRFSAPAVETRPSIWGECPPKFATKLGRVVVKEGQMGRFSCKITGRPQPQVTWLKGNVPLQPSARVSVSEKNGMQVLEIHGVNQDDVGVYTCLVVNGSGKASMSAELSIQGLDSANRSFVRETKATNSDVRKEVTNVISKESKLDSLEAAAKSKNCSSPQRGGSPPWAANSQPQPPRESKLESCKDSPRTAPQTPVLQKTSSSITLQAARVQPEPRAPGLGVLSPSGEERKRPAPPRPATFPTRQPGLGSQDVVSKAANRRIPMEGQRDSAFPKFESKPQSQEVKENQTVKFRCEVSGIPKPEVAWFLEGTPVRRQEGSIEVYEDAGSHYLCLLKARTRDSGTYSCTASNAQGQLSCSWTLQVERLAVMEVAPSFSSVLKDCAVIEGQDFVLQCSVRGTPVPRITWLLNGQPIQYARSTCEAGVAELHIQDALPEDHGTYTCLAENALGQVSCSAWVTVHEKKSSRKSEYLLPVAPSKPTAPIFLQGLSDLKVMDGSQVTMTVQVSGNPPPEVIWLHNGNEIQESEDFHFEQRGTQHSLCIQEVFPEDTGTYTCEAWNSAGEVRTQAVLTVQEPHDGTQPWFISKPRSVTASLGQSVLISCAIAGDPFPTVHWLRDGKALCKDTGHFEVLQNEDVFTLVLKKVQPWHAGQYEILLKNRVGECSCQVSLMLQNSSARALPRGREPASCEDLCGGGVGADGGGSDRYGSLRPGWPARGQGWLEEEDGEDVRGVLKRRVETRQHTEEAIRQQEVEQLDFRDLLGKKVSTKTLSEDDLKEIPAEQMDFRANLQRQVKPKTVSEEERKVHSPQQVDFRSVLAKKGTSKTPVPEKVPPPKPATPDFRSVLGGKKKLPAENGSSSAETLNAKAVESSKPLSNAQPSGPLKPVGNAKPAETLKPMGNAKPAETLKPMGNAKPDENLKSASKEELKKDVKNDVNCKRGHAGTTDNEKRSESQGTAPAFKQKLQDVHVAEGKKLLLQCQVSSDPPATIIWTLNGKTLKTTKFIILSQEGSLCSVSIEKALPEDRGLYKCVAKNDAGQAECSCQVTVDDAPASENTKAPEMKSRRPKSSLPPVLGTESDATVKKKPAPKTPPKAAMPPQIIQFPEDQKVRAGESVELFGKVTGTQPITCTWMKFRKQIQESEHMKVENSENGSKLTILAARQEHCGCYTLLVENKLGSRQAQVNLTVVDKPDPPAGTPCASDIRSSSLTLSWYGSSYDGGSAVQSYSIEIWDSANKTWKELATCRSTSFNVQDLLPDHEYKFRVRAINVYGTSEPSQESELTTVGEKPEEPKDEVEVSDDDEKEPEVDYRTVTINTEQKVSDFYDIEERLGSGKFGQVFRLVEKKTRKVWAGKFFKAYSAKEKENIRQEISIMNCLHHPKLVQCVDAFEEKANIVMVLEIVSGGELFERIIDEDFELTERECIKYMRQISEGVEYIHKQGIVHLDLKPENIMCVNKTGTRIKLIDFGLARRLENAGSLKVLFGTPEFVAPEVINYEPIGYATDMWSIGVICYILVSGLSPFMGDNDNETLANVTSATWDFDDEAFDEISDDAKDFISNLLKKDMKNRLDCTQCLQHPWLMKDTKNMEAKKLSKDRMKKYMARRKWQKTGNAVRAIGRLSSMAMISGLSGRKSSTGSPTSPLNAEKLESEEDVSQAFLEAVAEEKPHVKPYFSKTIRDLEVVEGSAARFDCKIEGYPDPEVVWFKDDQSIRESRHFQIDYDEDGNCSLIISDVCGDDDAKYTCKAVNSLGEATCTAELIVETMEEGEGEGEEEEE
Sequence of PIM1 (P11309 whole entry): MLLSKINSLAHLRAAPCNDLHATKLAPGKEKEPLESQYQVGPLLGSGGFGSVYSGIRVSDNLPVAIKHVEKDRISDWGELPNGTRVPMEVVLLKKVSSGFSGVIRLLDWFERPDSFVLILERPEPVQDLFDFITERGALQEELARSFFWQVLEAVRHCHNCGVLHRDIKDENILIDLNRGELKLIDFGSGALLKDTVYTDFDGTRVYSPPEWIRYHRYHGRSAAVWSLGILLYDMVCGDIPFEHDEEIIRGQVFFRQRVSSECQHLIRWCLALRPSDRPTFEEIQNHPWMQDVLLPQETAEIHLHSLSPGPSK
Sequence of PHKG2 (P15735 whole entry): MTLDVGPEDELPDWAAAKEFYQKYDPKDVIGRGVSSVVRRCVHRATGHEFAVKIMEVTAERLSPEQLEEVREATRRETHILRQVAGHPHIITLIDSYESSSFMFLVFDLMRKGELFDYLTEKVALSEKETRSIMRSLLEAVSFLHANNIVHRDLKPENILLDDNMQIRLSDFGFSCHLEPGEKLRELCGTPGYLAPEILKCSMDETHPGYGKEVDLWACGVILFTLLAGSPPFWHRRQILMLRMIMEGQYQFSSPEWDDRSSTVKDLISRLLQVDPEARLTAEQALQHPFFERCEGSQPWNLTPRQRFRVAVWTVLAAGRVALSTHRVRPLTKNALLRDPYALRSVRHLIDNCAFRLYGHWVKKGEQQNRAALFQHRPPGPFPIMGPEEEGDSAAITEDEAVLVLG

Structure (SMILES) | remaining binding at 1 µM (INSR) [%] | remaining binding at 1 µM (ACVRL1) [%] | remaining binding at 1 µM (RIPK2) [%] | remaining binding at 1 µM (KIT(V559D, T670I)) [%] | remaining binding at 1 µM [1] [%] | remaining binding at 1 µM (VPS34) [%] | remaining binding at 1 µM (LATS2) [%] | remaining binding at 1 µM (IGF1R) [%] | remaining binding at 1 µM (TGFBR1) [%] | remaining binding at 1 µM (SRPK2) [%] | remaining binding at 1 µM [2] [%] | remaining binding at 1 µM [3] [%] | remaining binding at 1 µM (PHKG2) [%] | remaining binding at 1 µM (SYK) [%] | remaining binding at 1 µM (MAP4K2) [%] | remaining binding at 1 µM (PRKD1) [%] | remaining binding at 1 µM (BUB1) [%] | remaining binding at 1 µM (OSR1) [%] | remaining binding at 1 µM [4] [%] | remaining binding at 1 µM (TEC) [%] | also measured
CCNc1cc(Nc2ccc(C(=O)N3CCC(N4CCOCC4)CC3)cc2OC)nc2[nH]cc(C#N)c12 [Example 18, 4-(ethylamino)-6-((2-methoxy-4-(4-morpholinopiperidine-1-carbonyl)phenyl)amino)-1H-pyrrolo[2,3-b]pyridine-3-carbonitrile] | 36 | 80 | 86 | 48 | 100 | 96 | 26 | 74 | 100 | 100 | 100 | 89 | 12 | 66 | 61 | 14 | 76 | 41 | 59 | 100 | remaining binding at 1 µM (MAP4K4): 100%; remaining binding at 1 µM (ERK1): 100%; remaining binding at 1 µM (ERK8): 99%; remaining binding at 1 µM (MLCK): 87%; remaining binding at 1 µM (PIM1): 59%; remaining binding at 1 µM (BTK): 99%; remaining binding at 1 µM (BLK): 99%; remaining binding at 1 µM (CHEK2): 4.1%; remaining binding at 1 µM (ALK(C1156Y)): 2.4%; percent of control binding at 1 µM (CSNK1D; CSNK1D, 1 uM): 5.3%; remaining binding at 1 µM (MET(Y1235D)): 100%; remaining binding at 1 µM (YANK3): 96%; remaining binding at 1 µM [5]: 92%; remaining binding at 1 µM (PKMYT1): 90%; remaining binding at 1 µM (TGFBR2): 100%; remaining binding at 1 µM (MYLK): 6%; remaining binding at 1 µM (MEK3): 4.3%; remaining binding at 1 µM (PIP5K1A): 100%
CCNc1cc(Nc2ccc(C(=O)N3CCC(N4CCOCC4)CC3)cc2OC)nc2[nH]cc(C(F)(F)F)c12 [Example 57, (4-((4-(ethylamino)-3-(trifluoromethyl)-1H-pyrrolo[2,3-b]pyridin-6-yl)amino)-3-methoxyphenyl) (4-morpholinopiperidin-1-yl)methanone] | 48 | 89 | 94 | 78 | 100 | 79 | 100 | 71 | 69 | 100 | 98 | 96 | 23 | 68 | 100 | 73 | 99 | 82 | 100 | 92 | remaining binding at 1 µM (MAP4K4): 100%; remaining binding at 1 µM (ERK1): 98%; remaining binding at 1 µM (ERK8): 93%; remaining binding at 1 µM (MLCK): 78%; remaining binding at 1 µM (PIM1): 94%; remaining binding at 1 µM (BTK): 100%; remaining binding at 1 µM (BLK): 73%; remaining binding at 1 µM (CHEK2): 47%; remaining binding at 1 µM (ALK(C1156Y)): 3.5%; percent of control binding at 1 µM (CSNK1D): 30%; remaining binding at 1 µM (MET(Y1235D)): 85%; remaining binding at 1 µM (YANK3): 71%; remaining binding at 1 µM [5]: 75%; remaining binding at 1 µM (PKMYT1): 96%; remaining binding at 1 µM (TGFBR2): 97%; remaining binding at 1 µM (MYLK): 7.8%; remaining binding at 1 µM (MEK3): 81%; remaining binding at 1 µM (PIP5K1A): 88%
